Measured values reported in patent publication US20260224536A1, “ARYL HETEROCYCLIC KV1.3 INHIBITOR, PREPARATION METHOD THEREFOR, AND USE THEREOF” (SHANGHAI SHENSHI WISE TECHNOLOGY CO., LTD., priority 2022, published 2026).

Each compound was assayed against Kv1.3 potassium channel (Homo sapiens, UniProt P22001) (assay: Whole-cell patch-clamp assay for inhibitory activity against Kv1.3 (peak current)). Settings: HEK293 cells stably expressing Kv1.3, patch-clamp.
Format: cell-based
Excerpt: The voltage stimulation protocol for recording whole-cell Kv1.X potassium currents via patch-clamp was as follows. After formation of a whole-cell seal, the cell membrane voltage was clamped at −80 mV, and then stepped to +40 mV for 500 ms. […] The test data were acquired by EPC-10 amplifier (HEKA) and stored in the PatchMaster (HEKA) software. Recording electrodes were drawn from capillary glass tubes using a microelectrode puller. Under an inverted microscope, the recording electrode was brought into contact with the cell surface by manipulating a microelectrode manipulator. Negative-pressure suction was applied to form a GΩ seal. After formation of the […], a rapid capacitance compensation was given. The application of negative pressure was continued to rupture the cell membrane, forming a whole-cell recording mode. Then, a slow capacitance compensation was given, and the membrane capacitance and series resistance were recorded. No current leakage compensation was provided. Once the whole-cell recorded Kv1.X current stabilized, drug administration was started. Each drug concentration was allowed to act for 5 min (or until the current reached a steady state) before the next concentration was tested. Multiple concentrations were tested for each test compound. The cover glass plated with the cells was placed in a recording bath of the inverted microscope. The test compound and the compound-free extracellular fluid were allowed to sequentially flow through the recording bath from low concentrations to high concentrations using a gravity perfusion method, thus acting on the cells, and liquid exchange was performed using a vacuum pump during recording. For each cell, the current detected in the compound-free extracellular liquid was used as its own control group. The test was independently repeated three times using at least three cells per concentration. All electrophysiological experiments were performed at room temperature. […] First, the peak current after the action of each drug concentration and the peak current of the blank control were standardized and then the inhibition rate corresponding to each drug concentration was calculated Subsequently, the mean, standard deviation (SD), and standard error (SE) were calculated for the inhibition rate corresponding to each concentration. Using the above equation, the IC50 value for each compound was calculated, and the dose-dependent effect was subjected to non-linear fitting, where IC50 is the half maximal inhibitory concentration. The IC50 calculation and the curve fitting were performed using the GraphPad Prism software.

Sequence of Kv1.3 potassium channel (P22001 whole entry): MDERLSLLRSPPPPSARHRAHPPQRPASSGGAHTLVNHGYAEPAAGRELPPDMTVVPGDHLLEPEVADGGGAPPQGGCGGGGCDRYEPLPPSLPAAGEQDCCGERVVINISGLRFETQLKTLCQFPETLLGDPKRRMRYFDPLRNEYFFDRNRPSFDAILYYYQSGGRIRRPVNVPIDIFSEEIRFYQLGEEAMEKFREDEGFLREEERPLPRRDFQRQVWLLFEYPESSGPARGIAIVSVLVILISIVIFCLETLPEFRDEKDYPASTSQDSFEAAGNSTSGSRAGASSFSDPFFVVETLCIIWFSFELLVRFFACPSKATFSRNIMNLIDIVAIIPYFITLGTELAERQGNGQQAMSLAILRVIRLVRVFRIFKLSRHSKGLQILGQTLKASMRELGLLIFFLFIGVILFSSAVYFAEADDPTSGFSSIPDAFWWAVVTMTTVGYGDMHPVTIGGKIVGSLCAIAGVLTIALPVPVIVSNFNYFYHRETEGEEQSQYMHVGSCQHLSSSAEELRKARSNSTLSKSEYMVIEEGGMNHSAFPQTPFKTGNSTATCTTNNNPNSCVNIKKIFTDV

**Q.** With COC(=O)N1CCC(c2nnc3n2C[C@H](c2c(O)ccc(Cl)c2Cl)C3)C1 (single isomer, unassigned) [Example 50] as the compound, how does the IC50 read?
**A.** Its IC50 is 10.9 nM.

**Q.** For O=C1CC(c2nnc3n2C[C@H](c2c(O)ccc(Cl)c2Cl)C3)CN1 (single isomer, unassigned) [Example 53], which IC50 is on record?
**A.** Its IC50 is 15 nM.

**Q.** For O=C1CC(c2nnc3n2C[C@H](c2c(O)ccc(Cl)c2Cl)C3)CCN1 (single isomer, unassigned) [Example 56], which IC50 is on record?
**A.** Its IC50 is 20.6 nM.

**Q.** For O=C1CC(c2nnc3n2C[C@H](c2c(O)ccc(Cl)c2Cl)C3)CCN1 (single isomer, unassigned) [Example 57], which IC50 is on record?
**A.** The IC50 was 11.4 nM.

**Q.** For Oc1ccc(Cl)c(Cl)c1[C@@H]1Cc2nnc(C3CCCNC3)n2C1 (single isomer, unassigned) [Example 58], which IC50 is on record?
**A.** Its IC50 is 12 nM.

**Q.** Which IC50 does the source give for CC1(c2nnc3n2C[C@H](c2c(O)ccc(Cl)c2Cl)C3)CCOC1 (single isomer, unassigned) [Example 64] here?
**A.** The IC50 was 42.8 nM.

**Q.** For Oc1ccc(Cl)c(Cl)c1[C@@H]1Cc2nnc(C3CCCOC3)n2C1 (single isomer, unassigned) [Example 69], which IC50 is on record?
**A.** Its IC50 is 53 nM.

**Q.** Which IC50 does the source give for Oc1ccc(Cl)c(Cl)c1C1Cc2nnc(C3CCN(C4CCCCC4)CC3)n2C1 (single isomer, unassigned) [Example 79] here?
**A.** The IC50 was 14.8 nM.

**Q.** Which IC50 does the source give for CC(C)N1CCC(c2cnc3n2CC(c2c(O)ccc(Cl)c2Cl)C3)CC1 (single isomer, unassigned) [Example 94] here?
**A.** The IC50 was 6.09 nM.

**Q.** Which IC50 does the source give for CCn1ncc2c1CC(c1c(O)ccc(Cl)c1Cl)C2 (single isomer, unassigned) [Example 118] here?
**A.** Its IC50 is 14.6 nM.

**Q.** For OCc1nnc2n1C[C@@H](c1c(O)ccc(Cl)c1Cl)C2 [Example 1, (R)-3,4-Dichloro-2-(3-(hydroxymethyl)-6,7-dihydro-5H-pyrrolo[2,1-c][1,2,4]triazol-6-yl)phenol], which IC50 is on record?
**A.** The IC50 was 94.3 nM.

**Q.** With CC(C)(C#N)c1nnc2n1CC(c1c(O)ccc(Cl)c1Cl)C2 (stereo not shown) [Example 4, 2-(6-(2,3-Dichloro-6-hydroxyphenyl)-6,7-dihydro-5H-pyrrolo[2,1-c][1,2,4]triazol-3-yl)-2-methylpropanenitrile] as the compound, how does the IC50 read?
**A.** Its IC50 is 45.2 nM.

**Q.** How did the IC50 turn out when Oc1ccc(Cl)c(Cl)c1C1Cc2nnc(C3CCCCC3)n2C1 (stereo not shown) [Example 5, 3,4-Dichloro-2-(3-cyclohexyl-6,7-dihydro-5H-pyrrolo[2,1-c][1,2,4]triazol-6-yl)phenol] was run?
**A.** The IC50 was 39 nM.

**Q.** With N#Cc1ccc(-c2nnc3n2CC(c2c(O)ccc(Cl)c2Cl)C3)cc1 (stereo not shown) [Example 6, 4-(6-(2,3-dichloro-6-hydroxyphenyl)-6,7-dihydro-5H-pyrrolo[2,1-c][1,2,4]triazol-3-yl)benzonitrile] as the compound, how does the IC50 read?
**A.** Its IC50 is 13.2 nM.

**Q.** Which IC50 does the source give for Oc1ccc(Cl)c(Cl)c1C1Cc2nnc(-c3ccc4[nH]ncc4c3)n2C1 (stereo not shown) [Example 7, 2-(3-(1H-Indazol-5-yl)-6,7-dihydro-5H-pyrrolo[2,1-c][1,2,4]triazol-6-yl)-3,4-dichlorophenol] here?
**A.** The IC50 was 12 nM.

**Q.** For CC(C)c1nnc2n1CC(c1c(O)ccc(Cl)c1Cl)C2 (stereo not shown) [Example 8, 3,4-Dichloro-2-(3-isopropyl-6,7-dihydro-5H-pyrrolo[2,1-c][1,2,4]triazol-6-yl)phenol], which IC50 is on record?
**A.** The IC50 was 20.6 nM.

**Q.** How did the IC50 turn out when N#Cc1cccc(-c2nnc3n2CC(c2c(O)ccc(Cl)c2Cl)C3)c1 (stereo not shown) [Example 9, 3-(6-(2,3-dichloro-6-hydroxyphenyl)-6,7-dihydro-5H-pyrrolo[2,1-c][1,2,4]triazol-3-yl)benzonitrile] was run?
**A.** The IC50 was 17.1 nM.

**Q.** With O=C(C1CC1)N1CCC(c2nnc3n2CC(c2c(O)ccc(Cl)c2Cl)C3)CC1 (stereo not shown) [Example 10, Cyclopropyl(4-(6-(2,3-dichloro-6-hydroxyphenyl)-6,7-dihydro-5H-pyrrolo[2,1-c][1,2,4]triazol-3-yl)piperidin-1-yl)methanone] as the compound, how does the IC50 read?
**A.** Its IC50 is 27.7 nM.

**Q.** How did the IC50 turn out when Oc1ccc(Cl)c(Cl)c1C1Cc2nnc(C3CCN(C4CC4)CC3)n2C1 (stereo not shown) [Example 11, 3,4-Dichloro-2-(3-(1-cyclopropylpiperidin-4-yl)-6,7-dihydro-5H-pyrrolo[2,1-c][1,2,4]triazol-6-yl)phenol] was run?
**A.** Its IC50 is 9.24 nM.

**Q.** O=C(c1nnc2n1CC(c1c(O)ccc(Cl)c1Cl)C2)N1CCC(O)C1 (stereo not shown) [Example 12, (6-(2,3-Dichloro-6-hydroxyphenyl)-6,7-dihydro-5H-pyrrolo[2,1-c][1,2,4]triazol-3-yl)(3-hydroxypyrrolidin-1-yl)methanone] was tested. Which IC50 did it give?
**A.** The IC50 was 30.9 nM.

**Q.** O=C(c1nnc2n1CC(c1c(O)ccc(Cl)c1Cl)C2)N1CCNCC1 (stereo not shown) [Example 13, (6-(2,3-Dichloro-6-hydroxyphenyl)-6,7-dihydro-5H-pyrrolo[2,1-c][1,2,4]triazol-3-yl)(piperazin-1-yl)methanone] was tested. Which IC50 did it give?
**A.** The IC50 was 5.09 nM.

**Q.** With CC(C)N1CCN(C(=O)c2nnc3n2CC(c2c(O)ccc(Cl)c2Cl)C3)CC1 (stereo not shown) [Example 14, (6-(2,3-Dichloro-6-hydroxyphenyl)-6,7-dihydro-5H-pyrrolo[2,1-c][1,2,4]triazol-3-yl)(4-isopropylpiperazin-1-yl)methanone] as the compound, how does the IC50 read?
**A.** Its IC50 is 19.6 nM.

**Q.** With Oc1ccc(Cl)c(Cl)c1C1Cc2nnc(CC(F)(F)F)n2C1 (stereo not shown) [Example 15, 3,4-Dichloro-2-(3-(2,2,2-trifluoroethyl)-6,7-dihydro-5H-pyrrolo[2,1-c][1,2,4]triazol-6-yl)phenol] as the compound, how does the IC50 read?
**A.** The IC50 was 26.8 nM.

**Q.** With CC(C)(C)c1nnc2n1CC(c1c(O)ccc(Cl)c1Cl)C2 (stereo not shown) [Example 16, 2-(3-(tert-Butyl)-6,7-dihydro-5H-pyrrolo[2,1-c][1,2,4]triazol-6-yl)-3,4-dichlorophenol] as the compound, how does the IC50 read?
**A.** The IC50 was 74.7 nM.

**Q.** For CC(C)N1CCC(Cc2nnc3n2CC(c2c(O)ccc(Cl)c2Cl)C3)CC1 (stereo not shown) [Example 18, 3,4-Dichloro-2-(3-((1-isopropylpiperidin-4-yl)methyl)-6,7-dihydro-5H-pyrrolo[2,1-c][1,2,4]triazol-6-yl)phenol], which IC50 is on record?
**A.** The IC50 was 5.76 nM.

**Q.** Oc1ccc(Cl)c(Cl)c1C1Cc2nnc(CN3CCC(O)C3)n2C1 (stereo not shown) [Example 19, 1-((6-(2,3-Dichloro-6-hydroxyphenyl)-6,7-dihydro-5H-pyrrolo[2,1-c][1,2,4]triazol-3-yl)methyl)pyrrolidin-3-ol] was tested. Which IC50 did it give?
**A.** The IC50 was 46.3 nM.

**Q.** How did the IC50 turn out when Oc1ccc(Cl)c(Cl)c1C1Cc2nnc(CN3CCOCC3)n2C1 (stereo not shown) [Example 20, 3,4-Dichloro-2-(3-(morpholinomethyl)-6,7-dihydro-5H-pyrrolo[2,1-c][1,2,4]triazol-6-yl)phenol] was run?
**A.** Its IC50 is 35.3 nM.

**Q.** O=C(c1nnc2n1CC(c1c(O)ccc(Cl)c1Cl)C2)N1CCOCC1 (stereo not shown) [Example 21, (6-(2,3-Dichloro-6-hydroxyphenyl)-6,7-dihydro-5H-pyrrolo[2,1-c][1,2,4]triazol-3-yl)(morpholino)methanone] was tested. Which IC50 did it give?
**A.** The IC50 was 48.6 nM.

**Q.** With Oc1ccc(Cl)c(Cl)c1C1Cc2nnc(C3CCN(C4CCOCC4)CC3)n2C1 (stereo not shown) [Example 22, 3,4-Dichloro-2-(3-(1-(tetrahydro-2H-pyran-4-yl)piperidin-4-yl)-6,7-dihydro-5H-pyrrolo[2,1-c][1,2,4]triazol-6-yl)phenol] as the compound, how does the IC50 read?
**A.** The IC50 was 13.6 nM.

**Q.** For Oc1ccc(Cl)c(Cl)c1C1Cc2nnc(C(F)F)n2C1 (stereo not shown) [Example 25, 3,4-Dichloro-2-(3-(difluoromethyl)-6,7-dihydro-5H-pyrrolo[2,1-c][1,2,4]triazol-6-yl)phenol], which IC50 is on record?
**A.** Its IC50 is 11.1 nM.

**Q.** OCCc1nnc2n1C[C@H](c1c(O)ccc(Cl)c1Cl)C2 [Example 32, (S)-3,4-Dichloro-2-(3-(2-hydroxyethyl)-6,7-dihydro-5H-pyrrolo[2,1-c][1,2,4]triazol-6-yl)phenol] was tested. Which IC50 did it give?
**A.** The IC50 was 13 nM.

**Q.** How did the IC50 turn out when Oc1ccc(Cl)c(Cl)c1[C@@H]1Cc2nnc(C3CCOCC3)n2C1 [Example 33, (S)-3,4-Dichloro-2-(3-(tetrahydro-2H-pyran-4-yl)-6,7-dihydro-5H-pyrrolo[2,1-c][1,2,4]triazol-6-yl)phenol] was run?
**A.** Its IC50 is 47.8 nM.

**Q.** With CCc1nnc2n1C[C@H](c1c(O)ccc(Cl)c1Cl)C2 [Example 34, (S)-3,4-Dichloro-2-(3-ethyl-6,7-dihydro-5H-pyrrolo[2,1-c][1,2,4]triazol-6-yl)phenol] as the compound, how does the IC50 read?
**A.** Its IC50 is 9.75 nM.

**Q.** How did the IC50 turn out when Oc1ccc(Cl)c(Cl)c1[C@@H]1Cc2nnc(C3CCNCC3)n2C1 [Example 35, (S)-3,4-Dichloro-2-(3-(piperidin-4-yl)-6,7-dihydro-5H-pyrrolo[2,1-c][1,2,4]triazol-6-yl)phenol] was run?
**A.** The IC50 was 3.15 nM.

**Q.** CC(C)N1CCC(c2nnc3n2C[C@H](c2c(O)ccc(Cl)c2Cl)C3)CC1 [Example 36, (S)-3,4-Dichloro-2-(3-(1-isopropylpiperidin-4-yl)-6,7-dihydro-5H-pyrrolo[2,1-c][1,2,4]triazol-6-yl)phenol] was tested. Which IC50 did it give?
**A.** Its IC50 is 6.8 nM.

**Q.** How did the IC50 turn out when CC(=O)N1CCC(c2nnc3n2C[C@H](c2c(O)ccc(Cl)c2Cl)C3)CC1 [Example 37, (S)-1-(4-(6-(2,3-Dichloro-6-hydroxyphenyl)-6,7-dihydro-5H-pyrrolo[2,1-c][1,2,4]triazol-3-yl)piperidin-1-yl)ethan-1-one] was run?
**A.** The IC50 was 12.7 nM.

**Q.** Cn1cc(-c2nnc3n2C[C@H](c2c(O)ccc(Cl)c2Cl)C3)ccc1=O [Example 38, (S)-5-(6-(2,3-Dichloro-6-hydroxyphenyl)-6,7-dihydro-5H-pyrrolo[2,1-c][1,2,4]triazol-3-yl)-1-methylpyridin-2(1H)-one] was tested. Which IC50 did it give?
**A.** The IC50 was 43.1 nM.
